Laboratory results reported in patent publication US6790838B2, “Combinations and methods for promoting in vivo liver cell proliferation and enhancing in vivo liver-directed gene transduction” (Amgen, Inc., priority 1999, dated 2004).

Experiments:
[1] = test system: hepatocytes; details: retroviral vector given after growth factor administration; literature reports (Bosch 1996, Kosai 1998, Forbes 1998); cited from earlier work
[2] = test system: hepatocytes; type: in vivo, rat; details: for proportion of hepatocytes transfected/transduced (β-galactosidase): growth factor at hour 0, 1 ml retrovirus intraportally at 24 hours, killed 9 days after vector; for zones of the liver where transfected hepatocytes were found: intraportal vector at 24 hours, 9 days after vector
Method: Animals were anesthetized with isoflurane. A midline laparotomy was performed, the bowel was deflected to the left and wrapped in normal saline-soaked gauze. The portal vein and hepatic artery were clamped using micro-aneurysm clips, the portal vein was cannulated with a 26-gauge needle proximal to the clip and 1 ml of retroviral supernatant was injected over 5 minutes. Hemostasis was achieved by direct pressure to the portal vein and topical thrombin (Sigma) application. The clips were removed and the abdomen sutured, and the animals were allowed to recover in a warm, quite environment. […] For peripheral vein injection, 1 ml of the retrovirus/DOGS complex was injected via tail vein as a bolus.
Transduction of liver cells was measured by β-galactosidase activity. Animals were anesthetized and sacrificed by exsanguination. The liver was removed and frozen in liquid nitrogen. Ten-micron frozen sections were cut on to glass slides, fixed in a solution of 1.25% glutaraldehyde at 4° C., washed with phosphate buffered saline (PBS) then covered in X-gal (Gibco BRL, Grand Island, N.Y.) solution (1 mg/ml, pH 7.4) and incubated overnight at 37° C. Sections were then washed in PBS, counterstained lightly with eosin or carmalum stain, dehydrated and mounted in pertex (Cellpath, Hemel Hempstead, UK). The proportion of hepatocytes expressing nuclear β-galactosidase was calculated by counting 2000 hepatocytes per section from three separate areas.
At hour 0, several groups of four rats received an administration of either a single growth factor (either 4 mg/kg T3 or 1 mg/kg KGF) or the combination of 4 mg/kg T3/1 mg/kg KGF. A control group of three rats received injections of the growth factor diluents only. At 24 hours all rats were injected intraportally with 1 ml of retrovirus during temporary hepatic artery and portal vein occlusion. All rats were killed 9 days following vector administration.

[3] = test system: hepatocytes; assay: Hepatocyte proliferation in vivo by BrdU labeling after growth factor injection; parameters: species or system rat; details: for zones of the liver showing cell proliferation / time after injection having maximum liver cell proliferation: KGF 1 mg/kg or T3 4 mg/kg s.c.; for proportion of hepatocytes proliferating (BrdU labelled, S-phase) at 24 hours: T3 4 mg/kg and/or KGF 1 mg/kg s.c. at 0 hours, BrdU 1 hour before sacrifice; for dose producing maximal hepatocyte proliferation at 24 hours: dose response curves, subcutaneous injection, single factor; for time after injection having maximum liver cell proliferation: time course 6-30 hours
Method: Male Wistar rats weighing 200-250 grams were used. They were housed in a temperature and light controlled room (12 hour light/dark cycle) and were allowed water and food ad libitum.
T3 (Sigma, St. Louis, Mo. USA), 4 mg per kilogram of body weight was dissolved in 100 μl of 0.01 M NaOH in […] NaCl and administered by subcutaneous injection in the flank region of the animal.
Lyophilized KGF (full lenght recombinant KGF, AMGEN, Thousand Oaks, Calif.) 1 mg per kilogram of body weight was dissolved in 100 μl of a suitable buffer (0.01% by weight polyoxyethylenesorbitan monolaurate (TWEEN 20, Sigma) solution) and administered by subcutaneous injection in the flank region of the animal.
Measurement of liver cell proliferation was performed by BrdU labeling. BrdU (Sigma) (50 mg/kg dissolved in 800 μl of 0.9% NaCl) was injected intraperitoneally 1 hour prior to sacrifice. Livers of the animals were removed and fixed in 60% methanol, 30% chloroform and 10% glacial acetic acid before routine histological processing and embedding in wax blocks. The incorporation of BrdU into hepatic nuclei was detected in 4 μm thick sections using a mouse monoclonal antibody (Dako, Glostrup, Denmark), followed by a biotinilated rabbit anti-mouse secondary antibody (Dako). Visualization was achieved by the indirect peroxidase technique using diaminobenzidine tetrahydrochloride dihydrate (Aldrich Chemical, Milwaukee, Wis. USA) as a substrate. The labeling index and percentage of hepatic mitoses was determined by counting 2000 hepatocytes per section from consecutive light microscopy fields. See Forbes, et al., Gene Therapy 5:552-555 at 553 (1998)(incorporated herein by reference in its entirety).
Dose response curves were initially performed to identify the dose at which KGF and T3 independently cause maximum hepatocyte proliferation at 24 hours.
The times after injection having maximum liver cell proliferation (as measured by DNA synthesis), were also independently established for each of the individual factors. An injection corresponding to the dose producing maximal cell proliferation, as established in Example 1, was independently administered to 2 groups of subjects, one group for each factor. Dividing cells were labelled by administering BrdU 1 hour prior to sacrifice. At 6, 9, 12, 15, 18, 24, and 30 hours after injection three animals of each group were sacrificed and labelled liver cells counted.
While searching for a manner of producing a clinically acceptable level of liver cell proliferation without a need for prior injury to the liver, a series of experiments were performed whereby a combination of factors was administered to subjects and liver cell proliferation measured 24 hours after administration. […] factor combinations were independently tested, each combination in a different group of animals. A first group received 4 mg/kg T3 at 0 hours. A second group received 1 mg/kg KGF at 0 hours. A third group received 1 mg/kg KGF and 4 mg/kg T3 at 0 hours. A fourth group served as control and received the vehicle or diluent only.

Molecule	liver cells (hepatocytes) transduced in vivo [1]	proportion of hepatocytes transfected/transduced (β-galactosidase) [2]	zones of the liver where transfected hepatocytes were found [2]	zones of the liver showing cell proliferation [3]	proportion of hepatocytes proliferating (BrdU labelled, S-phase) at 24 hours [3]	dose producing maximal hepatocyte proliferation at 24 hours [3] [mg/kg]	time after injection having maximum liver cell proliferation [3] [h]
hepatocyte growth factor: hepatocyte growth factor, cited from Kosai et al.	1.3%	–	–	–	–	–	–
N[C@@H](Cc1cc(I)c(Oc2ccc(O)c(I)c2)c(I)c1)C(=O)O [T3, tri-iodothyronine, reference compound]	about 1.3%	approximately 1.2%	mostly found in the mid-zonal region	predominantly in the mid-zonal region	approximately 10%	4	24
KGF: full length recombinant keratinocyte growth factor polypeptide (AMGEN) (protein, UniProt P21781 1-194, looked up, full-length) MHKWILTWILPTLLYRSCFHIICLVGTISLACNDMTPEQMATNVNCSSPERHTRSYDYMEGGDIRVRRLFCRTQWYLRIDKRGKVKGTQEMKNNYNIMEIRTVAVGIVAIKGVESEFYLAMNKEGKLYAKKECNEDCNFKELILENHYNTYASAKWTHNGGEMFVALNQKGIPVRGKKTKKEQKTAHFLPMAIT	2%	approximately 1%	found in all zones of the liver	all zones of the liver	approximately 9%	1	24
